Active and inactive are the calls of the source. No cut-off for these calls is given here.

The record followed here is ChEMBL document CHEMBL6127111, “First-in-Class Small Molecule Degrader of Pregnane X Receptor Enhances Chemotherapy Efficacy” (J Med Chem, 2024).

Series [1] in a line: Cytotoxicity against human SNU-C4 HiBiT-PXR KI cell assessed as cell viability at 30 uM incubated for 24 hrs by celltiter-glo luminescent assay relative to control. The format is functional. To be noted: read-out: Activity.
Series [2] is described as follows: Cytotoxicity against human SNU-C4 HiBiT-PXR KI cell assessed as cell viability incubated for 24 hrs by celltiter-glo luminescent assay. The format is functional.
Series [3] is described as follows: Cytotoxicity against human SNU-C4 HiBiT-PXR KI cell assessed as cell viability incubated for 72 hrs by celltiter-glo luminescent assay. The class given is functional.
The nature of series [4]: Cytotoxicity against human SNU-C4 HiBiT-PXR KI cell assessed as cell viability at 30 uM incubated for 72 hrs by celltiter-glo luminescent assay relative to control. The format is functional. To be noted: read-out: Activity.
Series [5] has as its target T1, von Hippel-Lindau disease tumor suppressor/Nuclear receptor subfamily 1 group I member 2 (Homo sapiens, UniProt O75469+P40337). In words: PROTAC activity at N-terminal PXR/VHL in human SNU-C4 HiBiT-PXR KI cell assessed as PXR degradation upto 10 uM incubated at 24 hrs by Western blot analysis. The class given is cell-based.
Series [6] concerns the target T1, von Hippel-Lindau disease tumor suppressor/Nuclear receptor subfamily 1 group I member 2. In words: PROTAC activity at PXR/VHL in human SNU-C4 HiBiT-PXR KI cell assessed as PXR degradation at 1 uM incubated for 8 hrs in presence of methyl (S)-3-(1-(2,5-dimethoxyphenyl)-5-methyl-1H-1,2,3-triazole-4-carboxamido)-4-(hexan-3-yloxy)benzoate by Western blot analysis. The format is cell-based.

Series [7] shares this target. In words: PROTAC activity at PXR/VHL in human SNU-C4 HiBiT-PXR KI cell assessed as PXR degradation at 1 uM incubated for 8 hrs in presence of VH032 by Western blot analysis. The format is cell-based.
The target is the same in series [8]. In words: PROTAC activity at PXR/VHL in human SNU-C4 HiBiT-PXR KI cell assessed as PXR degradation at 1 uM incubated for 8 hrs in presence of MG132 by Western blot analysis. The class given is cell-based.
Series [9] has the same target. The experiment in a line: PROTAC activity at PXR/VHL in human SNU-C4 HiBiT-PXR KI cell assessed as PXR degradation at 1 uM incubated for 8 hrs in presence of MLN4924 by Western blot analysis. The format is cell-based.
Series [10] addresses T2, Nuclear receptor subfamily 1 group I member 2 (Homo sapiens, UniProt O75469).
T2 sequence (O75469 whole entry): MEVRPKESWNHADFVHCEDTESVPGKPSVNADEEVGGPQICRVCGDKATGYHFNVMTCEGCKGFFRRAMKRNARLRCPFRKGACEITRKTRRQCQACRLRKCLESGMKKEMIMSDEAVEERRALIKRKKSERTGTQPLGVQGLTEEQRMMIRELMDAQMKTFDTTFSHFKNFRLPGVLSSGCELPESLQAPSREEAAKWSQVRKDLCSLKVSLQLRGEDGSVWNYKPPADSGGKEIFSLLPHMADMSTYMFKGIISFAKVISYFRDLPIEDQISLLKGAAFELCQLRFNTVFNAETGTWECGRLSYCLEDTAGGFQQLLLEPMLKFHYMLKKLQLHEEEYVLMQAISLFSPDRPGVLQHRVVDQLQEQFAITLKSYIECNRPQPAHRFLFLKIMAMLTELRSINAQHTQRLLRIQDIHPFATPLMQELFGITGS
The experiment in a line: Inhibition of PXR activation in human HepG2 cells transfected with CYP3A4 incubated for 24 hrs in presence of rifampicin. The class given is cell-based. To be noted: hepg2, 24 h.

Series [11] concerns the target T2, Nuclear receptor subfamily 1 group I member 2. The experiment in a line: Inhibition of PXR activation in human HepG2 cells transfected with CYP3A4 incubated for 24 hrs in presence of T0901317. The format is cell-based. The conditions noted are these: hepg2, 24 h.
Series [12] shares this target. The experiment in a line: Inhibition of PXR activation in human HepG2 cells transfected with CYP3A4 incubated for 24 hrs in presence of paclitaxel. The class given is cell-based. To be noted: hepg2, 24 h.
Another series concerns HepG2. In words: Reduction in basal PXR activity on CYP3A4 promoter in human HepG2 cells at 10 uM in absence of PXR agonist. The class given is functional, cell-based.
Series [13] concerns the target T2, Nuclear receptor subfamily 1 group I member 2. The experiment in a line: Inhibition of PXR activation in human SNU-C4 cells transfected with CYP3A4 at 10 uM incubated for 24 hrs in presence of paclitaxel. The format is cell-based. The conditions noted are these: snu-c4, 24 h.
Series [14] relates to SNU-C4. In words: Effect on PXR mRNA level in human SNU-C4 cells at 10 uM incubated for 24 hrs in presence of paclitaxel by RT-qPCR analysis. The class given is functional, cell-based.
The subject of series [15] is SNU-C4. In words: Cytotoxicity against human SNU-C4 cells assessed as cell viability incubated for 72 hrs in presence of paclitaxel. The format is functional.
The target of series [16] is von Hippel-Lindau disease tumor suppressor/Nuclear receptor subfamily 1 group I member 3 (Homo sapiens, UniProt Q14994+P40337). The experiment in a line: PROTAC activity at CAR/VHL in HEK293T cells assessed as CAR degradation at 0.001 to 100 uM incubated for 24 hrs. The class given is cell-based. The conditions noted are these: dose 0.001-100 µM.
von Hippel-Lindau disease tumor suppressor/Nuclear receptor subfamily 1 group I member 3, sequence (Q14994 whole entry): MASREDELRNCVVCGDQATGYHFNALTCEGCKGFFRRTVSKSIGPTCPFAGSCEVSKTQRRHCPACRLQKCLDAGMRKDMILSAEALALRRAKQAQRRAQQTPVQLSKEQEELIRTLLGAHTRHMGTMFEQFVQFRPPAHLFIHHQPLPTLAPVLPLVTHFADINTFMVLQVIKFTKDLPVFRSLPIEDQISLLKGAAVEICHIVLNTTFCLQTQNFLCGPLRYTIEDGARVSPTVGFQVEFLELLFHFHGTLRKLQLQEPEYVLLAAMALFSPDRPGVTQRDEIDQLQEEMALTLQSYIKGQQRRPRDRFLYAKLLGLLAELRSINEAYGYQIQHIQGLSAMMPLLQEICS
von Hippel-Lindau disease tumor suppressor/Nuclear receptor subfamily 1 group I member 3, sequence (P40337 whole entry): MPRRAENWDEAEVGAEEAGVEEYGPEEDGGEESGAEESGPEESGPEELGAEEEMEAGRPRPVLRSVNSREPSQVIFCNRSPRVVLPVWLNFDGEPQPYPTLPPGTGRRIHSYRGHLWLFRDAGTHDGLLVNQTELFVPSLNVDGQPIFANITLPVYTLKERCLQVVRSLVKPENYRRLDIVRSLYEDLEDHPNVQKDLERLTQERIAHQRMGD
The target in series [17] is von Hippel-Lindau disease tumor suppressor/Vitamin D3 receptor (Homo sapiens) (UniProt P11473+P40337). The experiment in a line: PROTAC activity at VDR/VHL in HEK293T cells assessed as VDR degradation at 0.001 to 100 uM incubated for 24 hrs. The format is cell-based. The conditions noted are these: dose 0.001-100 µM.
von Hippel-Lindau disease tumor suppressor/Vitamin D3 receptor (Homo sapiens), sequence (P11473 whole entry, looked up): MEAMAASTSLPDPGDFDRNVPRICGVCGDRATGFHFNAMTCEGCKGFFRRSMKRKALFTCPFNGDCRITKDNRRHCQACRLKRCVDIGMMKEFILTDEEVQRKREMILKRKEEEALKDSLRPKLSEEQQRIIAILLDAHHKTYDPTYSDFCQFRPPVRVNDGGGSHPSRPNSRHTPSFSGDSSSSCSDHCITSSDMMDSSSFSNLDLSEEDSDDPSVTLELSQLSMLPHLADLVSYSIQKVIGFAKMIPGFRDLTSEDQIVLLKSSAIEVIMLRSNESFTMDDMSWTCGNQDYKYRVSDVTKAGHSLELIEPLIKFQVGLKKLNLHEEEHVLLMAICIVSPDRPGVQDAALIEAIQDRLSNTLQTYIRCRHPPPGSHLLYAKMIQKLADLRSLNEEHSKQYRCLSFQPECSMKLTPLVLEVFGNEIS
von Hippel-Lindau disease tumor suppressor/Vitamin D3 receptor (Homo sapiens), sequence (P40337 whole entry, looked up): as the sequence (P40337 whole entry) above
The target of series [18] is von Hippel-Lindau disease tumor suppressor/Bile acid receptor (Homo sapiens) (UniProt Q96RI1+P40337). In words: PROTAC activity at FXR/VHL in HEK293T cells assessed as FXR degradation at 0.001 to 100 uM incubated for 24 hrs. The format is cell-based. The conditions noted are these: dose 0.001-100 µM.
von Hippel-Lindau disease tumor suppressor/Bile acid receptor (Homo sapiens), sequence (P40337 whole entry, looked up): as the sequence (P40337 whole entry) above
von Hippel-Lindau disease tumor suppressor/Bile acid receptor (Homo sapiens), sequence (Q96RI1 whole entry, looked up): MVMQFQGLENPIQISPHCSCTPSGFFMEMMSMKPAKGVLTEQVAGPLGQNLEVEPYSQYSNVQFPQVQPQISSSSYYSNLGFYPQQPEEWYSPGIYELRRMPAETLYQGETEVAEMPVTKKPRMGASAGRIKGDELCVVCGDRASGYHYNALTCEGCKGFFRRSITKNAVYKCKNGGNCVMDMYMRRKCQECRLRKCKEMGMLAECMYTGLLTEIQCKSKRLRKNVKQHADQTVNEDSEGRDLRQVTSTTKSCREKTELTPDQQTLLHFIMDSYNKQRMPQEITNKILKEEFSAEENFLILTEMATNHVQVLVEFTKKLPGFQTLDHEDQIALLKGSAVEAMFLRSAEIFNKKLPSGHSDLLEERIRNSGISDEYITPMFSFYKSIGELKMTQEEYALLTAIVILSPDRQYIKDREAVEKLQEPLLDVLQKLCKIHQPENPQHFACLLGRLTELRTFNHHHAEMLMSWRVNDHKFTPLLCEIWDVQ
The target in series [19] is von Hippel-Lindau disease tumor suppressor/Oxysterols receptor LXR-alpha (Homo sapiens) (UniProt Q13133+P40337). In words: PROTAC activity at LXRalpha/VHL in HEK293T cells assessed as LXRalpha degradation at 0.001 to 100 uM incubated for 24 hrs. To be noted: dose 0.001-100 µM. The format is cell-based.
von Hippel-Lindau disease tumor suppressor/Oxysterols receptor LXR-alpha (Homo sapiens), sequence (P40337 whole entry, looked up): as the sequence (P40337 whole entry) above
von Hippel-Lindau disease tumor suppressor/Oxysterols receptor LXR-alpha (Homo sapiens), sequence (Q13133 whole entry, looked up): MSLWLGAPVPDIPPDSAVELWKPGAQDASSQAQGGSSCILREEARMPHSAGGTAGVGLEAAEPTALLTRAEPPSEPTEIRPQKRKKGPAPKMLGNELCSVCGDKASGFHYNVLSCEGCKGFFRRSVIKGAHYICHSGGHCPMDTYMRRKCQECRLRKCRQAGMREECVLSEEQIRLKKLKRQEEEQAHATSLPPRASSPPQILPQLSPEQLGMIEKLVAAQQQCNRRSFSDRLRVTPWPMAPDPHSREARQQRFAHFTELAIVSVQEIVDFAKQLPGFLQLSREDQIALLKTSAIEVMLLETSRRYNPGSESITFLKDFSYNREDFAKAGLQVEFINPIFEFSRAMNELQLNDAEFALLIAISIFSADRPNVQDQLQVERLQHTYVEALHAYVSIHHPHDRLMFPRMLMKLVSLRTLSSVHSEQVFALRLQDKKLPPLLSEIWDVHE
In series [20] the target is von Hippel-Lindau disease tumor suppressor/Oxysterols receptor LXR-beta (Homo sapiens) (UniProt P55055+P40337). The experiment in a line: PROTAC activity at LXRbeta/VHL in HEK293T cells assessed as LXRbeta degradation at 0.001 to 100 uM incubated for 24 hrs. The class given is cell-based. To be noted: dose 0.001-100 µM.
von Hippel-Lindau disease tumor suppressor/Oxysterols receptor LXR-beta (Homo sapiens), sequence (P40337 whole entry, looked up, the tested form may be a part): as the sequence (P40337 whole entry) above
von Hippel-Lindau disease tumor suppressor/Oxysterols receptor LXR-beta (Homo sapiens), sequence (P55055 whole entry, looked up, the tested form may be a part): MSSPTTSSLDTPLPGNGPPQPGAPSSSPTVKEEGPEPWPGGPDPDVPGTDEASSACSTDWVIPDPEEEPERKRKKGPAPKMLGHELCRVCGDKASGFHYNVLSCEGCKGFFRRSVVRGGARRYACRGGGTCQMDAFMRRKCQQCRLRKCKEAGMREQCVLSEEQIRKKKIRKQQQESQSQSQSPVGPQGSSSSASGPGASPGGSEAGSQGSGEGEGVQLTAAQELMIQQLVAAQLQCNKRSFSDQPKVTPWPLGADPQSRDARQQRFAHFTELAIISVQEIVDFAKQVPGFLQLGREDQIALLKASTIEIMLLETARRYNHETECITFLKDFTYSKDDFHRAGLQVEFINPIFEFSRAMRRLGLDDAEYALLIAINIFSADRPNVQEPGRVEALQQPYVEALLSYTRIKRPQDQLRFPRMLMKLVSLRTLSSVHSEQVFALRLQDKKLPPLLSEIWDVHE
In series [21] the target is T1, von Hippel-Lindau disease tumor suppressor/Nuclear receptor subfamily 1 group I member 2. The experiment in a line: PROTAC activity at PXR/VHL in human SNU-C4 HiBiT-PXR KI cell assessed as inhibition of LBD-VCB complex formation at 41.2 nM incubated for 24 hrs by TR-FRET assay. The format is cell-based. The conditions noted are these: 0.0412 µM.
Series [22] has the same target. The experiment in a line: PROTAC activity at […] PXR/VHL in human SNU-C4 HiBiT-PXR KI cell assessed as PXR degradation incubated at 24 hrs by Western blot analysis. The class given is cell-based.

T1 sequence (P40337 whole entry, one chain of several): as the sequence (P40337 whole entry) above

Turning to `CCC[C@H](CC)Oc1ccc(C(=O)OC)cc1NC(=O)c1nnn(-c2cc(OC)c(OCCCCCCOCCOCC(=O)N[C@H](C(=O)N3C[C@H](O)C[C@H]3C(=O)NCc3ccc(-c4scnc4C)cc3)C(C)(C)C)cc2OC)c1C`, the figures for the viability at 30 µM in series [1] and in series [4] were 102% and 105%, respectively. The CC50 in series [2] was greater than 30 µM; in [3], greater than 30 µM; with SNU-C4 [15] it was 9.53 µM. Further, the Activity entry in [5] is recorded as “Active”; in series [6] it was “Not Active”; in [7] it was “Not Active”; in series [8], “Not Active”; in [9] it was “Not Active”; in [16] it was “Not Active”. The “inhibition (INH)” value in [10], in [11], in series [12] and in series [13] was “Active” in each case. Also, in the series with HepG2, the result was Active. Moreover, the result (with SNU-C4 [14]; in series [17]; in [18]; in [19]; in series [20]) was inactive.
Turning to `CC(=O)N[C@H](C(=O)N1C[C@@H](O)C[C@H]1C(=O)NCc1ccc(-c2scnc2C)cc1)C(C)(C)C`, the Activity entry in [21] is “Not Active”.
On to `CCC[C@H](CC)Oc1ccc(C(C)(C)C)cc1NC(=O)c1nnn(-c2cc(OC)c(OCCCCCCOCCOCC(=O)N[C@H](C(=O)N3C[C@H](O)C[C@H]3C(=O)NCc3ccc(-c4scnc4C)cc3)C(C)(C)C)cc2OC)c1C`, for which the viability at 30 µM in series [1] amounted to 97.4%; in series [4], 99.5%. Moreover, the CC50 in series [2] and in [3] was greater than 30 µM throughout. Moreover, the Activity result in series [5] is recorded as “Active”; in series [6], “Not Active”; in series [7], “Not Active”; in series [8] it was “Not Active”; in [9], “Not Active”; in [16] it was “Not Active”. The DC50 in series [22] is 0.0531 µM. Besides, the result in series [17], in series [18], in [19] and in [20] was inactive.
